Reference: publication PMC6200933, “Identification of a Kdn biosynthesis pathway in the haptophyte Prymnesium parvum suggests widespread sialic acid biosynthesis among microalgae” (The Journal of Biological Chemistry, 2018)
Where two headings read alike, the source gives them in different places.

Columns and labels:
[1] = target: T1, B. thetaiotaomicron VPI-5482 Kdn-9-P phosphatase (Bacteroides thetaiotaomicron, UniProt Q8A712); assay: […] NMR coupled assay, Kdn-9-P generated in situ by P. parvum Kdn-9-P synthetase; format: biochemical; settings: coupled with Kdn-9-P synthetase, 10 mM PEP, 8 mM Man-6-P, 2 mM MgCl2, 50 mM HEPES pD 7.5, 1 h
T1 construct: gene BT_1713
T1 sequence (Q8A712 whole entry, change not shown): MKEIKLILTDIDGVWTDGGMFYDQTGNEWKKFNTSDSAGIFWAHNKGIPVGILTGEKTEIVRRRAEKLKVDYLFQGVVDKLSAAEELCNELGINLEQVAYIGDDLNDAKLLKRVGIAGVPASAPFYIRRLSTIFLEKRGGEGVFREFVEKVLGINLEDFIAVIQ

[2] = test system: T2, Kdn-9-P synthetase (CAMPEP_0191217894); assay: BioMol Green colorimetric phosphate-release assay, Michaelis-Menten; format: biochemical, Prymnesium parvum; settings: 50 mM HEPES pH 7.5, 2 mM MgCl2, 25 °C
T2 construct: no truncation stated

For `O=C(O)C1(O)C[C@H](O)[C@@H](O)[C@H]([C@H](O)[C@H](O)COP(=O)(O)O)O1` (stereo partly drawn) [Kdn-9-P], the “31P NMR coupled assay, Kdn-9-P generated in situ by P. parvum Kdn-9-P synthetase” value [1] was “is accepted by B. thetaiotaomicron VPI-5482 Kdn-9-P phosphatase”.
For `O=P(O)(O)OC[C@H]1OC(O)[C@@H](O)[C@@H](O)[C@@H]1O` (stereo partly drawn) [Man-6-P], the Km ([2]; 100 μM PEP, read-out: (Man-6-P)Km) was 63.6 ± 10.5 µM.
Molecule `C=C(OP(=O)(O)O)C(=O)O` [PEP] has a Km ([2]; 100 μM Man-6-P, read-out: (PEP)Km) of 18.3 ± 1.8 µM.
